# Like-named read-outs stand apart in the source and are kept apart here.
# Legend:
# [1] = test system: kidney homogenates of uni-nephrectomized FHH rats; assay: Intrarenal Ang peptide content by parallel reaction monitoring (LC/MS/MS), late disease protocol; format: in vivo, rat; conditions: late disease model
# Procedure: Stable isotope labeled peptide standards (SIS, ^13C ^15N, New England Peptide, Gardner, MA) were resuspended in water to 1 nM and stored at −80C in Lo-Bind microcentrifuge tubes (Eppendorf) with the exception of Ang-I, which was resuspended in 30% acetonitrile and stored at 0.4 nM final concentration. Ang-(1-7), Ang-II, and Ang-(2-10) contained isotopically labeled valine. Ang-I contained isotopically labeled valine and proline. Peptide concentration was determined by amino acid analysis.
# Tissues were stored frozen at −80°C in 15 ml Falcon tubes. Whole kidney tissues were submerged in liquid nitrogen for 5 minutes and kidney tissue was processed in a biopulverizer (MidSci, St. Louis, MO) to a fine powder. Pulverized tissue was transferred to a 5-ml glass dounce with a chilled spatula. Approximately 200 mg of tissue was used for peptide extraction. Four volumes of ice cold methanol (Burdick and Jackson, LC-MS Grade) were added to the tissue followed by a volume of water (Burdick and Jackson, LC-MS Grade) containing O-phenanthroline (Sigma Aldrich) and SIS peptides resulting in a final concentration of 1 mM and 1.8 nM, respectively. Tissue was homogenized in the dounce on ice for 1 minute. An aliquot of tissue homogenate was transferred to a 2-ml lo-bind microcentrifuge tube and stored at −20°C for at least 1 hour. Samples were further centrifuged for 10 minutes at 10,000×g at 4°C. An aliquot equal to approximately 60% of the total sample volume was transferred to a lo-bind tube equivalent to 100 mg of tissue (wet weight). From this aliquot, a volume equal to the wet weight of the starting tissue was transferred to a new lo-bind tube and diluted with ice cold water so that the final concentration of methanol was 40%. […] The filtrate volume was estimated by variable volume pipet and recorded to determine the fraction of starting volume collected. […] Declustering potential was set at 80 V. For parallel reaction monitoring (PRM) quantification, the dominant charge state of each peptide was determined and collision energies were optimized manually for SIS peptides (Table 1). […]
# [2] = target: T1, human AT2 receptor (Homo sapiens, UniProt P50052); assay: Ang peptide radioligand binding assay, displacement of [125I]-Ang-II (AT2R/HEK); conditions: competition with [125I]-Ang-II, HEK-293 cells stably transfected with human AT2 receptor, 90 min on ice, log-logit analysis; average of n studies
# T1 construct: expressed in transfected cells
# T1 sequence (P50052 1-363): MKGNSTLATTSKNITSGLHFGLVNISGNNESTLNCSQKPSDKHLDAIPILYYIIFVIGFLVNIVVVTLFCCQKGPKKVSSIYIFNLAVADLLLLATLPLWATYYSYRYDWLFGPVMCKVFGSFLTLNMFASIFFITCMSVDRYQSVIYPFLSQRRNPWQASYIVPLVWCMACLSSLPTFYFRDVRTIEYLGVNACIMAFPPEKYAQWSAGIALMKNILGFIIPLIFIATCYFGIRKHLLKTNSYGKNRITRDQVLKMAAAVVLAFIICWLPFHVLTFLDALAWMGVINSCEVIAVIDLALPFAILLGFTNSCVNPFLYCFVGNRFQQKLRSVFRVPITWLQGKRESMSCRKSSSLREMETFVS
# Procedure: (§1) HEK-293 cells stably expressing AT1a receptor were maintained and characterized as previously described. HEK-293 cells expressing AT2 receptors were transfected with pcDNA3.1 plasmid containing human AT2 receptor DNA using Lipofectamine 2000 at 1 µg DNA/well of a six-well plate according to manufacturer's protocol (Invitrogen, Carlsbad, CA). Transfected cells were maintained in Minimal Essential Medium (MEM) containing 10% fetal bovine serum and 1% antibiotic/fungizone/antimycotic with addition of geneticin (400 µg/ml) for stable transfectants. Confluent monolayers cells were deprived of serum (0.1% bovine serum albumin) for 2–24 hours before assay. […] After 90 min of incubation on ice, cells were gently washed 3 times with ice cold 0.9% sodium chloride followed by solubilization of the cell monolayer with 0.1 N NaOH/0.1% SDS. The solubilized sample was placed into a gamma counter for determination of cell-associated radioactivity. Log-logit analysis of the obtained competition curves was performed for determination of IC50 values.
# [3] = target: T2, AT1a receptor (Rattus norvegicus, UniProt P25095); assay: Ang peptide radioligand binding assay, displacement of [125I]-Ang-II (AT1R/HEK); conditions: competition with [125I]-Ang-II, HEK-293 cells stably expressing AT1a receptor, 90 min on ice, log-logit analysis; average of n studies
# T2 construct: expressed in transfected cells
# T2 sequence (P25095 1-359): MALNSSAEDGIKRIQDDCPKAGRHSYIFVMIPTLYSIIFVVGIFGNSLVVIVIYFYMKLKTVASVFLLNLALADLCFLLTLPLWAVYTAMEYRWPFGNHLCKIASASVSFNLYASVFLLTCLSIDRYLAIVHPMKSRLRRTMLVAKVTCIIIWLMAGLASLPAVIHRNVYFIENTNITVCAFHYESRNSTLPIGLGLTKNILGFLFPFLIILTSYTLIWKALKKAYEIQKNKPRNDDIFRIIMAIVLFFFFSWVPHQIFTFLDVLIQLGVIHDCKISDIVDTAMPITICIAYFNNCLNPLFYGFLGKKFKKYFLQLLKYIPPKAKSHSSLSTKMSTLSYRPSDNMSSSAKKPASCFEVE
# Procedure: as §1
# [4] = test system: uni-nephrectomized fawn-hooded hypertensive (FHH) rats; conditions: late disease model; for systolic blood pressure at 6 weeks of treatment / systolic blood pressure after 12 weeks of treatment: tail-cuff, mean ± SEM, SEM; for systolic blood pressure at 6 weeks of treatment / degree of glomerulosclerosis (semiquantitative score 0-4): captopril 100 mg/kg/d or losartan 20 mg/kg/d orally; for systolic blood pressure at 6 weeks of treatment: vehicle 179±2; for systolic blood pressure after 12 weeks of treatment: captopril 100 mg/kg/d, losartan 20 mg/kg/d orally, low-dose Ang-(2-10) 100 ng/kg/min iv, vehicle 185±3; for degree of glomerulosclerosis (semiquantitative score 0-4): vehicle 2.29±0.9
# Procedure: (§2) Male FHH rats (In-house colony established from animals obtained from Charles River Laboratories, Wilmington, MA) were housed at a certified animal facility at 22°C and a 12∶12 h light/dark cycle. […] All surgeries were performed under isoflurane anesthesia (5% induction, 2% maintenance), at 37°C, and perioperative buprenorphine.
# (§3) Following anesthesia, an incision was made in the left flank; the kidney was exposed and excised after ligation of the pedicle. […] Under anesthesia, a mini-pump was placed in a subcutaneous pocket. […] Pumps were replaced once during the treatment period. For the early disease model, five groups of rats were examined. […] For the late disease model, eight groups of rats were examined. […] The dosages of the Ang peptides were selected based on previous studies where Ang-(1-7) was similarly administered using implanted osmotic mini-pumps, [16], [17], [26]. […] Systemic blood pressure was measured by tail-cuff sphygmomanometer (Natume, Japan). Animals were placed on metabolic cages for urine collection at pre-specified time points. Urinary protein excretion was measured by the method of Lowry. Urinary sodium concentration was measured by ion-selective electrodes. At sacrifice, kidneys were harvested for histological analysis and measurement of Ang peptide concentration.
# (§4) Upon harvesting, kidneys were cleared of blood by transcardiac perfusion of iced-cold phosphate buffered saline, excised and fixed in 4% paraformaldehyde, embedded in paraffin and processed for microscopic examination. Kidney sections (2-µm) were stained with hematoxylin-eosin (H&E), Jones silver and Periodic Acid Schiff (PAS). Slides were reviewed by an experienced renal pathologist (S.S) in a blinded fashion. Index of glomerulosclerosis was evaluated by a semiquantitative score based on the percentage of the glomerular tuft occupied by sclerotic lesions (0: no lesions, 1: lesions affecting less than 25% of the glomerulus, 2-3-4: lesions affecting 25–50%, 50–75% and 75–100% of the glomerulus, respectively). Tubular injury was rated based on presence of tubular atrophy, microcystic tubular dilation and interstitial fibrosis, from 0 to 3 (0: none; 1: mild; 2: moderate; 3: severe).
# (§5) Blood pressure data were analyzed by repeated measures ANOVA. Differences within groups were analyzed using paired t-tests adjusted with Bonferroni modification. Differences between group means at each time point were tested using one-way ANOVA followed by Tukey-Kramer post-hoc test. Urinary protein excretions were log10 transformed and tested using a two-way ANOVA for repeated measures followed by Scheffe post hoc test for differences between the groups. Untransformed 24-hour urinary protein excretions at each time point were then tested using Kruskal-Wallis test. If a significant main effect was detected then differences between groups were tested using the Mann-Whitney U test with the probability adjusted using the Bonferroni modification. Urine sodium was also assessed by two-way ANOVA for repeated measures and pairwise multiple comparisons were made using the Holm-Sidak method. Multiple comparisons of Ang peptide levels were made using ANOVA when data were normally distributed and with log10 transformation when non-normally distributed. Post-hoc pairwise comparisons were made using the Holm-Sidak method. […] For Ang peptide measurements by LC/MS/MS, only values above the LLOQ were utilized for statistical comparisons.
# [5] = test system: uni-nephrectomized fawn-hooded hypertensive (FHH) rats; assay: Model of FSGS, early disease protocol (blood pressure, proteinuria, histology, weights, urine); format: in vivo, rat
# Procedure: as §2, §3, §4, §5
smiles,measurement,setting,value
CC[C@H](C)[C@H](NC(=O)[C@H](Cc1ccc(O)cc1)NC(=O)[C@@H](NC(=O)[C@H](CCCNC(=N)N)NC(=O)[C@@H](N)CC(=O)O)C(C)C)C(=O)N[C@@H](Cc1c[nH]cn1)C(=O)N1CCC[C@H]1C(=O)O [Ang-(1-7)],intrarenal level of the exogenously administered peptide (in words),"[1]; kidneys harvested at sacrifice, chronic iv infusion 100-400 ng/kg/min, whole kidney homogenate, LC-MS/MS (PRM)",did not lead to a significant increase
same,IC50,[2],0.0609 µM
same,IC50,[3],3.79 µM
"C[C@H](CS)C(=O)N1CCC[C@H]1C(=O)O [Captopril, captopril]",progression of the degree of proteinuria between weeks 18 and 24,"[4]; captopril 100 mg/kg/d orally, vehicle +342±289, p=0.012",-225 ± 453 mg/day
same,systolic blood pressure at 6 weeks of treatment,[4],156±7 mmHg
same,systolic blood pressure after 12 weeks of treatment,[4],145±5 mmHg
same,degree of glomerulosclerosis (semiquantitative score 0-4),"[4]; week 30, after 12 weeks",0.88±0.2
same,tubular injury score (0-3),"[4]; week 30, after 12 weeks, captopril 100 mg/kg/d orally, printed as captopril vs. vehicle, p<0.05",2.6±0.4
same,kidney Ang-II levels compared with vehicle (in words),"[1]; after 12 weeks, captopril 100 mg/kg/d, Mann-Whitney U test p=0.002, n=5/group",lower
same,degree of glomerulosclerosis (semiquantitative score 0-4),"[5]; after 8 weeks, Ang-II 100 ng/kg/min iv, captopril 100 mg/kg/d, mean ± SEM, vehicle 0.4±0.1, SEM",0.1±0.1
same,tubular injury score (0-3),"[5]; after 8 weeks, Ang-II 100 ng/kg/min iv, captopril 100 mg/kg/d, mean ± SEM, vehicle 0.8±0.2",non-significant reduction
same,"urinary protein excretion (proteinuria), median (range), after 4 weeks","[5]; captopril 100 mg/kg/d, Lowry method, n=5, vehicle 89 (31–188), p=0.014 vs vehicle",14 (13–17) mg/day
same,"urinary protein excretion (proteinuria), median (range), after 8 weeks","[5]; captopril 100 mg/kg/d, Lowry method, n=5, vehicle 243 (91–402), p=0.014 vs vehicle",30 (25–33) mg/day
same,systolic blood pressure after 4 weeks of therapy,"[5]; tail-cuff, captopril 100 mg/kg/d in drinking water, n=5, mean ± SEM, vehicle 161±4, SEM",117±5 mmHg
same,systolic blood pressure after 8 weeks of therapy,"[5]; tail-cuff, captopril 100 mg/kg/d in drinking water, n=5, mean ± SEM, vehicle 162±4, SEM",134±3 mmHg
"CC[C@H](C)[C@H](NC(=O)[C@H](Cc1ccc(O)cc1)NC(=O)[C@@H](NC(=O)[C@H](CCCNC(=N)N)NC(=O)[C@@H](N)CC(=O)O)C(C)C)C(=O)N[C@@H](Cc1cnc[nH]1)C(=O)N1CCC[C@H]1C(=O)N[C@@H](Cc1ccccc1)C(=O)O [Ang-II, Angiotensin (Ang) II]",survival (in words),"[4]; Ang-II low-dose 100 ng/kg/min iv, time mark = 6 weeks of treatment",no rats in this group survived beyond that time mark
"CCCCc1nc(Cl)c(CO)n1Cc1ccc(-c2ccccc2-c2nn[nH]n2)cc1 [Losartan, losartan]",systolic blood pressure at 6 weeks of treatment,[4],155±5 mmHg
same,systolic blood pressure after 12 weeks of treatment,[4],146±5 mmHg
same,degree of glomerulosclerosis (semiquantitative score 0-4),"[4]; week 30, after 12 weeks",1.28±0.7
